According to ChEMBL document CHEMBL1201862, “PubChem BioAssay data set” (2004):
Calls of active or inactive are those of the source.

Tests used:
Format in all cases: functional
HEK293 = assay: EBV LMP1 TES2 canonical NF-kB signalling blockers – cell-based, HEK293, luciferase, cherry-pick, dose response (AID 588343); details: Homo sapiens
Protein skinhead-1 = molecular target: T1, Protein skinhead-1 (Caenorhabditis elegans, UniProt P34707)
T1 sequence (P34707 whole entry): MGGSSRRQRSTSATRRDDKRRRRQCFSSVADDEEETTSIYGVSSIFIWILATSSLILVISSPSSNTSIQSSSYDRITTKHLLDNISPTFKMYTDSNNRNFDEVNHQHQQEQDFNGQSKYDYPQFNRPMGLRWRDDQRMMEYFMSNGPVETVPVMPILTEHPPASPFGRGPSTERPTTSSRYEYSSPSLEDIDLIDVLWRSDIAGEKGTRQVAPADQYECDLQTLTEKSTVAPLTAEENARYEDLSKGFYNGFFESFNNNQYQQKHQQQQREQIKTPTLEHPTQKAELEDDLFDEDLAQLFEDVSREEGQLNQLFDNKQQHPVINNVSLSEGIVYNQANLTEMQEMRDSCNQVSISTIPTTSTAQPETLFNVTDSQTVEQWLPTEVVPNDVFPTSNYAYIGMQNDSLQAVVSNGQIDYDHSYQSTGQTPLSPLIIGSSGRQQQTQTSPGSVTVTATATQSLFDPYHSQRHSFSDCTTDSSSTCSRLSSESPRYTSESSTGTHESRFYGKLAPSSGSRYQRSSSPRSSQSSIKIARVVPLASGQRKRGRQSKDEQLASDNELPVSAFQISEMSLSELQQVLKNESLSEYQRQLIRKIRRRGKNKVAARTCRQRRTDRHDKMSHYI

[1] = molecular target: T2, Sentrin-specific protease 6 (Homo sapiens, UniProt Q9GZR1);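 note: Luminescence-based dose-response confirmatory assay of SENP6 inhibition, following up an ultra-high-throughput screen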
T2 sequence (Q9GZR1 whole entry): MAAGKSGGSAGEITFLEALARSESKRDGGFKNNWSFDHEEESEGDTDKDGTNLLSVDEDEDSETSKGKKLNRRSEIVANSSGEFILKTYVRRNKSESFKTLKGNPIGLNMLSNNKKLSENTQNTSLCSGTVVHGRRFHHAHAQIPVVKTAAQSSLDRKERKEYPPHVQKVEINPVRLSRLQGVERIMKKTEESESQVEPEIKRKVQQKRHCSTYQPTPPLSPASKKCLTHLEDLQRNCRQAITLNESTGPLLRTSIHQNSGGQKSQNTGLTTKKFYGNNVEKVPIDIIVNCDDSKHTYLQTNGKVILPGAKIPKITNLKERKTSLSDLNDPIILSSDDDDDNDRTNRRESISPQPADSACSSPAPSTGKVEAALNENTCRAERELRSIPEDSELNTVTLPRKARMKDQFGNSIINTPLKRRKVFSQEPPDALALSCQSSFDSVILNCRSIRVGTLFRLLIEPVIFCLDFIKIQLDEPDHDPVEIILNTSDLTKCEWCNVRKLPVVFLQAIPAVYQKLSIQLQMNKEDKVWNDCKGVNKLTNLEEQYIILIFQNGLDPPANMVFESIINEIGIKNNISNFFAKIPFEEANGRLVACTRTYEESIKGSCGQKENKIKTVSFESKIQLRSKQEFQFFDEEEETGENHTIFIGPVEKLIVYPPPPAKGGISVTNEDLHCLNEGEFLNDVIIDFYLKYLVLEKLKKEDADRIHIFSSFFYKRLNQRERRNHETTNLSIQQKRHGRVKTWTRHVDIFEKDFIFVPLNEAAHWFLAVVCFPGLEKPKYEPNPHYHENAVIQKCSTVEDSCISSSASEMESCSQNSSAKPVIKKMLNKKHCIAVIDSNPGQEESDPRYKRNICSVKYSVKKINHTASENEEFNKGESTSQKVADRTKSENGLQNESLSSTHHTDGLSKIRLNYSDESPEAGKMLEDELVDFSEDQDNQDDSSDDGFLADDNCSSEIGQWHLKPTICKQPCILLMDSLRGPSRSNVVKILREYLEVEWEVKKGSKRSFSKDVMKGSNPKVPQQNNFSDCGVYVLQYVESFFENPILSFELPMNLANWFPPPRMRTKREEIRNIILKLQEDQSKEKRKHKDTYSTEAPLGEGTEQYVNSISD

[2] = molecular target: DNA (cytosine-5)-methyltransferase 1 (Homo sapiens, UniProt P26358); assay: inhibition of DNA methylation by DNMT1 – biochemical, fluorescent molecular beacon, confirmation (AID 602386)
Chain of DNA (cytosine-5)-methyltransferase 1 (P26358 whole entry): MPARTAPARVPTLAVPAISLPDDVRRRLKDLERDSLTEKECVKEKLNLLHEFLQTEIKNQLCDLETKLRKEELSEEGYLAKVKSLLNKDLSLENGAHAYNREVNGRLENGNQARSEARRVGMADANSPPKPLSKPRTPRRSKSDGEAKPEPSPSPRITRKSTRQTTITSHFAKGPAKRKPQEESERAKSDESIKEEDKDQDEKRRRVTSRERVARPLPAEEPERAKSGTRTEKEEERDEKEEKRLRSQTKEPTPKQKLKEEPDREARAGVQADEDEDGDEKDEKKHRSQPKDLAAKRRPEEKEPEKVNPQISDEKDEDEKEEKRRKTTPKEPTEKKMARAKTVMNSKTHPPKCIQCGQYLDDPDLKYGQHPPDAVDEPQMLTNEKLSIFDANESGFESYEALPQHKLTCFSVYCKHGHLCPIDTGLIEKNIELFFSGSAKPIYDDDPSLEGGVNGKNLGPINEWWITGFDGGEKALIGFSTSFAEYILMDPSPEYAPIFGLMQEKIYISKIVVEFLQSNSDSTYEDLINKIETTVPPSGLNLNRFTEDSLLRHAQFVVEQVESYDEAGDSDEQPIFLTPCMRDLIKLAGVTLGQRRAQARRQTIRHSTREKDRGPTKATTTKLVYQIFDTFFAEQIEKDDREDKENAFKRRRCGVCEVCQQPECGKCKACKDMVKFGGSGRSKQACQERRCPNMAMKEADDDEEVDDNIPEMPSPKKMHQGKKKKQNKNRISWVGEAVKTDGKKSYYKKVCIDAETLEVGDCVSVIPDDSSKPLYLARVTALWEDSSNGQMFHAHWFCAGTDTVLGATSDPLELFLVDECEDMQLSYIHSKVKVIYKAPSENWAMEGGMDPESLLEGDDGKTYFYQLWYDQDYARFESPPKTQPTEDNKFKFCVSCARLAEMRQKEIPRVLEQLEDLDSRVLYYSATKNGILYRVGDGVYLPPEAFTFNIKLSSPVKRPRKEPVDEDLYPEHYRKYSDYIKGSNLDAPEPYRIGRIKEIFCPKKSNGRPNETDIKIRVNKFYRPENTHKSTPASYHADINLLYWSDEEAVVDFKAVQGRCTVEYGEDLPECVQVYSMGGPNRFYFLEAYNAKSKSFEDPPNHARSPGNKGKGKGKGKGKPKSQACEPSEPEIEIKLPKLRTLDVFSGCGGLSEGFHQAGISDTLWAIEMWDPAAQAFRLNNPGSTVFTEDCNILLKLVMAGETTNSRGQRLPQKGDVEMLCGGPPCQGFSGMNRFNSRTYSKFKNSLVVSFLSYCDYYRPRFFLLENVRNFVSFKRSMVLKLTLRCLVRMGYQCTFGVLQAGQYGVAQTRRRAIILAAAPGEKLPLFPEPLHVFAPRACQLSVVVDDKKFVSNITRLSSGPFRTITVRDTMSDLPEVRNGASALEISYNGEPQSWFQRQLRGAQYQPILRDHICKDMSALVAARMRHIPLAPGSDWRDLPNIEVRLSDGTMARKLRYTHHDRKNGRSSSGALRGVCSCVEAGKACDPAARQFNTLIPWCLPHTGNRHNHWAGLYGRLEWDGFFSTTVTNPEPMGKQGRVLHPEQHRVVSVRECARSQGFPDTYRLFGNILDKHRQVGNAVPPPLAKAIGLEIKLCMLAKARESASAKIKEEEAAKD

IC50 [1]	IC50 [2]	Compound	AC50 (HEK293)	IC50 (Protein skinhead-1)
–	–	O=C(CC(O)(C(F)(F)F)C(F)(F)F)Nc1ccc(Cl)c(Cl)c1	1.34 µM (active)	19.6 µM (active)
14.1 µM (active)	3.85 µM (active)	O=C1NC(=S)N/C1=C/c1cc2c(cc1[N+](=O)[O-])OCO2	–	–
